Source: article PMC4406241 (Current eye research, 2009)

Molecular target: T1, Breast Cancer Resistance Protein (BCRP) (Homo sapiens, UniProt Q9UNQ0)
T1 sequence (Q9UNQ0 1-655): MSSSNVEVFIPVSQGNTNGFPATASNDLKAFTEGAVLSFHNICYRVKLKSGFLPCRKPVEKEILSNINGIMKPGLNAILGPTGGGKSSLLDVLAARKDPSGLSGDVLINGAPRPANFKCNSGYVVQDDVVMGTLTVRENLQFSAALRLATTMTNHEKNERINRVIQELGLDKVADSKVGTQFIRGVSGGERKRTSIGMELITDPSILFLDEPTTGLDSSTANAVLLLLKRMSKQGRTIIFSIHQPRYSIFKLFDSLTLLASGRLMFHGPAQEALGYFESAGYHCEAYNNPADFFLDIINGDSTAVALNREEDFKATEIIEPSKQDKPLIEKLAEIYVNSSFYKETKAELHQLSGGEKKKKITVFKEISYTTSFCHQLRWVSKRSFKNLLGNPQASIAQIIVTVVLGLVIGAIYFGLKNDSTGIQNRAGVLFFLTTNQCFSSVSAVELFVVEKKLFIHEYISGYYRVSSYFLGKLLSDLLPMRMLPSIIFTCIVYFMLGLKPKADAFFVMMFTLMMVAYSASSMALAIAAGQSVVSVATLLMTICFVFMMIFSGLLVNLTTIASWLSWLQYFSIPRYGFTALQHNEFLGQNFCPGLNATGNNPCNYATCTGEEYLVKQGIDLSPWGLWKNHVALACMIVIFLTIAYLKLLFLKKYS
Assay: inhibition of [3H]-MTX efflux from MDCKII-BCRP transfected cells and SV40-HCEC
Assay type: cell-based

Molecule `COc1ccc2c3c([nH]c2c1)[C@H](C=C(C)C)N1C(=O)[C@@H]2CCCN2C(=O)[C@@H]1C3` [FTC, Fumetremorgin C] has an IC50 of about 10 µM.
